{
  "source": "patent US11191757B2",
  "about": "“Combination of pimavanserin and cytochrome P450 modulators” (ACADIA Pharmaceuticals Inc., priority 2016, dated 2021)",
  "key": {"[1]": {"assay": "Pharmacokinetics of single-dose pimavanserin alone and in the presence of multiple-dose ketoconazole (strong CYP3A inhibitor) in healthy subjects", "conditions": "for exposure to metabolite, mean AUC ratio AUC(metabolite)/AUC(parent): after a single dose of pimavanserin; for metabolite plasma concentrations with ketoconazole co-administration: metabolite in plasma after pimavanserin tartrate 40 mg with ketoconazole 400 mg daily; for metabolite plasma levels after pimavanserin: metabolite in plasma after single dose pimavanserin tartrate 40 mg, 19 subjects", "method": "(§2) 20 subjects (14 males and 6 females) were enrolled in this study. These subjects were healthy male or female subjects between the ages of 18 and 55 years, and with a body mass index (BMI) between 18 and 30 kg/m^2. Among the 20 subjects, 10 subjects (50%) were black, 9 subjects (45%) were white and 1 subject (5%) was American Indian/Alaska native.\n(§3) On Day 1, subjects received a single oral dose of pimavanserin tartrate 40 mg (2×20 mg tablets) under fasting conditions. On Day 15, subjects began taking ketoconazole 400 mg (2×200 mg tablets) orally once daily for 14 days. A single oral dose of pimavanserin tartrate 40 mg was administered under fasting conditions 60 minutes after the fifth ketoconazole dose (on Day 19). Both single doses of pimavanserin tartrate were administered on an empty stomach, following an overnight fast of approximately 10 hours prior to dosing. Subjects continued to fast for 4 hours after administration of pimavanserin tartrate.\n(§4) Samples for pimavanserin pharmacokinetic (PK) analysis were collected prior to each pimavanserin dose and at scheduled time points up to 14 days post-dose. More specifically, blood samples for the determination of plasma pimavanserin and four of its metabolites were collected at the following time points in relation to pimavanserin dosing on Day 1 and Day 19: pre-dose (within 30 minutes of dosing), 1, 2, 4, 6, 9, 12, 16, 24, 36, 48, 72, 96, 144, 192, 264, and 336 hours post-dose. The pharmacokinetics of pimavanserin and four metabolites, M1 (N-desmethyl-pimavanserin), M2 (O-desalkyl-pimavanserin), M3 ([ω-1]-hydroxy-pimavanserin), and M4 (ω-hydroxy-pimavanserin), by treatment consisting of pimavanserin alone and pimavanserin with ketoconazole, were assessed using noncompartmental analysis.\n(§5) The following parameters were determined for pimavanserin, M1, M2 and M3 (the analytes for which there was a sufficient number of quantifiable post-dose concentrations): the area under the concentration-time curve from 0 to the time of the last measurable concentration (AUC0-t); the area from 0 to infinity (AUC0-inf); the percent of the extrapolated portion of the AUC0-inf (% AUCext); the maximum observed plasma concentration (Cmax); time of maximum plasma concentration (Tmax); apparent first-order terminal elimination rate constant (kel), and apparent first-order terminal elimination half-life (t1/2). Additional PK parameters computed for pimavanserin were oral clearance (CL/F), and apparent volume of distribution (Vz/F). Where feasible, as in the case of pimavanserin, M1, M2 and M3, parent ratios, which were computed as AUC(metabolite)/AUC(parent) ratios based on both AUC0-t and AUC0-inf were also determined.\n(§6) A two-sided paired t-test was performed on the natural log-transformed pimavanserin AUC0-t, AUC0-inf, and Cmax at the alpha level of 0.05. The geometric ratio of treatment means (pimavanserin with ketoconazole/pimavanserin alone) and 90% geometric confidence intervals for the ratio of means were calculated for AUC0-t, AUC0-inf, and Cmax."}, "[2]": {"assay": "Safety and tolerability of single-dose pimavanserin alone and in the presence of ketoconazole in healthy subjects", "type": "in vivo, human", "conditions": "for treatment-related TEAEs considered related to the substance, number (% of the 16 treatment-related TEAEs): 20 healthy subjects, pimavanserin tartrate 40 mg single doses, ketoconazole 400 mg daily for 14 days; for safety and tolerability: healthy adult subjects", "experimental": "The subject who was discontinued was not replaced.\nSafety data (including adverse events (AEs)), laboratory tests, vital sign measurements, electrocardiograms (ECGs), and physical examination (PE) were reviewed throughout the study for the purpose of safety monitoring. Clinical laboratory assessments were obtained on Day −1, Day 18, and the end of study visit. Vital signs were performed at each study visit, except on Day −1. A 12-lead ECG was performed on Day −1, Day 1, Day 19 and the end of study visit. Other safety measures included physical examination on Days −1, 3, 23, and the end of study visit and any other measures deemed necessary.\nAll available safety data from subjects receiving at least one dose of study medication were included in the safety analyses. The frequency of AEs was tabulated. Pre-treatment, within study, and end of study, and change from pre-treatment laboratory, vital signs, and ECG parameters were summarized. Shift tables were prepared for laboratory parameters."}, "CYP3A4": {"target": "T1, CYP3A4 (Homo sapiens, UniProt P08684)", "T1 construct": "from tissue; host or cells: human subjects in vivo (endogenous hepatic/intestinal enzyme)", "T1 sequence (P08684 whole entry)": "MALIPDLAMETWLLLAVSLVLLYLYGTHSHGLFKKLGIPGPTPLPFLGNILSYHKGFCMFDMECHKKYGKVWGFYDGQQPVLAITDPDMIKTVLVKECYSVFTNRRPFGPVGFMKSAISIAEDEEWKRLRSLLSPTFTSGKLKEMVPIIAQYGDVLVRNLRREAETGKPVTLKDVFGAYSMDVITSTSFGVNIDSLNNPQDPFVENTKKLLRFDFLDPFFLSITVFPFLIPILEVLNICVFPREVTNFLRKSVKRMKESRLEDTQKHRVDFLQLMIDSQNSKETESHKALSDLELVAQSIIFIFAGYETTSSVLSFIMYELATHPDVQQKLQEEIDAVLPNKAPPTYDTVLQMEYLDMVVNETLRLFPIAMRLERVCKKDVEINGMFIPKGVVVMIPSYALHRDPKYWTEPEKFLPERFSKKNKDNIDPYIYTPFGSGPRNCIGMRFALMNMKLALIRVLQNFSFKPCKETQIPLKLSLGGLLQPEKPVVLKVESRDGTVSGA", "assay": "Effect of pimavanserin on the pharmacokinetics of midazolam, in vivo probe drug for CYP3A4", "conditions": "34 mg pimavanserin for up to 38 days, humans", "experimental": "In this study, the pharmacokinetics of midazolam, a sensitive in vivo probe drug for CYP3A4 and an accepted probe drug for CYP3A4, were evaluated in the presence of pimavanserin in humans. […] No dose adjustment is therefore required for other CYP3A4 substrates when coadministered with pimavanserin."}, "[3]": {"conditions": "both, human, in vivo", "method": "as §2, §3, §4, §5, §6"}, "[4]": {"target": "cytochrome P450 (CYP) 3A4 (Homo sapiens, UniProt P08684)", "sequence (P08684 whole entry)": "as above", "assay": "In vitro studies of the enzymes forming the primary metabolites of pimavanserin", "type": "in vitro ADME", "experimental": "(§1) A major metabolite formed in vitro by human liver microsomes, M1 (N-desmethyl-pimavanserin), was identified as a significant circulating metabolite in humans in vivo.\nAn in vitro study was performed to analyze the role of a CYP3A4 inhibitor in pimavanserin metabolism."}, "CYP2J2": {"target": "T2, CYP2J2 (Homo sapiens, UniProt P51589)", "T2 sequence (P51589 1-502)": "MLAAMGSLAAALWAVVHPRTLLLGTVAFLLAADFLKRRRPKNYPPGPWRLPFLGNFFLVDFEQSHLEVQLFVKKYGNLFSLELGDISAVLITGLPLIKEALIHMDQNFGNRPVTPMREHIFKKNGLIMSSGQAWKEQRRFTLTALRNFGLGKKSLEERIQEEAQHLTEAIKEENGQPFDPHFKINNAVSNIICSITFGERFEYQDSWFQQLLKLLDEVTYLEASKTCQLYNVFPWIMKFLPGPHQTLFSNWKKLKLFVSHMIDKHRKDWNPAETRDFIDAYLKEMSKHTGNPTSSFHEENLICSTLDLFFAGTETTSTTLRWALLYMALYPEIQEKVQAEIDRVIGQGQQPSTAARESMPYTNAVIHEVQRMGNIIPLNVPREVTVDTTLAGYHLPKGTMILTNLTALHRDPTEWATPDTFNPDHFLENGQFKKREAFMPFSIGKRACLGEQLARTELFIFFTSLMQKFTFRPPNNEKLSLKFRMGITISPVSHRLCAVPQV", "assay": "In vitro studies of the enzymes forming the primary metabolites of pimavanserin", "type": "in vitro ADME", "description": "as §1"}, "clinical": {"assay": "clinical", "conditions": "both, human, in vivo, po, 40 mg", "method": "as §2, §3, §4, §5, §6"}, "[5]": {"assay": "Elimination half-life of circulating metabolite M1 in humans in vivo", "parameters": "species or system human"}},
  "note": "“Also recorded” adds a separate entry of the source.",
  "data": [
    {"smiles": "CN1CCC(N(Cc2ccc(F)cc2)C(=O)NCc2ccc(O)cc2)CC1", "note": "[M2, O-desalkyl-pimavanserin]", "values": [
      {"measurement": "exposure to metabolite, mean AUC ratio AUC(metabolite)/AUC(parent)", "setting": "[1]", "value": 0.0365},
      {"measurement": "metabolite plasma concentrations with ketoconazole co-administration", "setting": "[1]", "value": "decreased plasma concentrations; also recorded: reduced"}
    ]},
    {"smiles": "CC(C)COc1ccc(CNC(=O)N(Cc2ccc(F)cc2)C2CCN(C)CC2)cc1", "note": "[Pimavanserin, N-(1-methylpiperidin-4-yl)-N-(4-fluorophenylmethyl)-N′-(4-(2-methylpropyloxy)phenylmethyl)carbamide]", "values": [
      {"measurement": "treatment-related TEAEs considered related to the substance, number (% of the 16 treatment-related TEAEs)", "setting": "[2]", "value": "8 (50%)"},
      {"measurement": "changes in mean clinical laboratory, vital signs, 12-lead ECG or physical examination findings", "setting": "[2]; following pimavanserin alone or pimavanserin with ketoconazole", "value": "No trends or clinically relevant changes"},
      {"measurement": "safety and tolerability", "setting": "[2]; pimavanserin administered alone", "value": "safe and generally well tolerated"},
      {"measurement": "safety and tolerability", "setting": "[2]; pimavanserin administered with ketoconazole", "value": "safe and generally well tolerated"},
      {"measurement": "deaths or serious adverse events during the study", "setting": "[2]; pimavanserin alone and with ketoconazole, 20 subjects", "value": "No deaths or serious adverse events"},
      {"measurement": "effect on midazolam exposure (induction or inhibition of CYP3A4)", "setting": "CYP3A4", "value": "no immediate or delayed effect"},
      {"measurement": "ratio of the geometric means, pimavanserin AUC0-inf", "setting": "[3]", "value": "approximately 3"},
      {"measurement": "ratio of the geometric means, pimavanserin AUC0-t", "setting": "[3]", "value": "approximately 3"},
      {"measurement": "role of enzyme in formation of the primary metabolites", "setting": "[4]", "value": "formed predominantly by the cytochrome P450 (CYP) 3A4 enzymes"},
      {"measurement": "role of enzyme in formation of the primary metabolites", "setting": "CYP2J2", "value": "minor role"},
      {"measurement": "AUC(0-inf)", "setting": "clinical", "value": "1260 ± 464", "unit": "ng·h/mL"},
      {"measurement": "AUC(0-t)", "setting": "clinical", "value": "1220 ± 433", "unit": "ng·h/mL"},
      {"measurement": "Cmax", "setting": "clinical", "value": "17.1 ± 3.8", "unit": "ng/mL"}
    ]},
    {"smiles": "CN1CCC(N(Cc2ccc(F)cc2)C(=O)NCc2ccc(OCC(C)(C)O)cc2)CC1", "note": "[M3, [ω-1]-hydroxy-pimavanserin]", "values": [
      {"measurement": "metabolite plasma concentrations with ketoconazole co-administration", "setting": "[1]", "value": "not detectable in any subjects; also recorded: reduced"},
      {"measurement": "metabolite plasma levels after pimavanserin", "setting": "[1]", "value": "Only 5 of the 19 subjects had a few measurable plasma levels; also recorded: Low levels"}
    ]},
    {"smiles": "CC(C)COc1ccc(CNC(=O)N(Cc2ccc(F)cc2)C2CCNCC2)cc1", "note": "[M1, N-desmethyl-pimavanserin]", "values": [
      {"measurement": "elimination half-life", "setting": "[5]", "value": "about 65 hours"},
      {"measurement": "exposure to metabolite, mean AUC ratio AUC(metabolite)/AUC(parent)", "setting": "[1]", "value": 1.47},
      {"measurement": "net increase in mean AUC0-t of metabolite with ketoconazole co-administration relative to pimavanserin alone", "setting": "[1]; metabolite in plasma after pimavanserin tartrate 40 mg, ketoconazole 400 mg daily", "value": 26, "unit": "%"}
    ]},
    {"smiles": "CC(CO)COc1ccc(CNC(=O)N(Cc2ccc(F)cc2)C2CCN(C)CC2)cc1", "note": "(stereo not shown) [M4, ω-hydroxy-pimavanserin]", "values": [
      {"measurement": "metabolite plasma levels after pimavanserin", "setting": "[1]", "value": "undetectable; also recorded: no detectable concentrations"}
    ]},
    {"smiles": "CC(=O)N1CCN(c2ccc(OCC3COC(Cn4ccnc4)(c4ccc(Cl)cc4Cl)O3)cc2)CC1", "note": "(stereo not shown) [ketoconazole, reference compound]", "values": [
      {"measurement": "treatment-related TEAEs considered related to the substance, number (% of the 16 treatment-related TEAEs)", "setting": "[2]", "value": "12 (75%)"}
    ]}
  ]
}
